We go through one molecule from publication PMC11831592, “Repurposing Linezolid in Conjunction with Histone Deacetylase Inhibitor Access in the Realm of Glioblastoma Therapies” (Journal of Medicinal Chemistry, 2025).

One series deals with T1, HDAC8 (Homo sapiens, UniProt Q9BY41).
T1 construct: purchased Reaction Biology Corporation, Malvern, PA (contract assay service)
T1 sequence (Q9BY41 1-377): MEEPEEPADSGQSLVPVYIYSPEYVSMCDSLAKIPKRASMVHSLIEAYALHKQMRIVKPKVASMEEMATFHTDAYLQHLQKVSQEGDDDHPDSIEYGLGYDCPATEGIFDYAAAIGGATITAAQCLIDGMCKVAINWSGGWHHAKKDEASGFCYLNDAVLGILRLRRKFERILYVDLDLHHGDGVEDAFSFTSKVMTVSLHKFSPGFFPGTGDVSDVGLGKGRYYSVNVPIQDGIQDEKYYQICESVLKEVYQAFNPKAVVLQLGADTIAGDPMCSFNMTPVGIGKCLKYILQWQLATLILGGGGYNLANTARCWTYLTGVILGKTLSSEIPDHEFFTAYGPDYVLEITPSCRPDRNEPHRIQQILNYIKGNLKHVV
In words: HDAC enzyme inhibition assay, HDAC8. The series is classed as biochemical. The conditions noted are these: 10-dose, 3-fold serial dilution starting at 10 μM. Here is the method: (§1) Enzyme inhibition assays were performed by the Reaction Biology Corporation, Malvern, PA (http://www.reactionbiology.com).

Another series deals with CT-2A astrocytoma cells. Briefly: Orthotopic CT-2A tumor model, IVIS. The series is classed as in vivo, mouse. The conditions noted are these: 10 mg/kg intraperitoneally. The protocol:
(§2) Animals were imaged using an IVIS to monitor tumor growth and target expression changes. Initially, animals were anesthetized with isoflurane prior to imaging to minimize movement artifacts. D-luciferin (150 mg/kg) was then administered via an intraperitoneal injection. After 60 s, animals were positioned on the imaging platform, and images were acquired with a 10-s exposure. Experimental data were collected and quantified for fluorescence or bioluminescence signals by using Living Image software in the IVIS system. After each imaging session, animal ID, imaging parameters, and imaging time were recorded for subsequent analysis.
For orthotopic inoculation, CT-2A cells (1 × 10^5) or CT-2A-R (2 × 10^5) were suspended in 4 μL of DMEM and implanted into the brain of B6 mice. PT#3-R cells (5 × 10^5) were suspended in 4 μL of DMEM and implanted into the brain of SCID mice. After cell implantation, mice were monitored daily for survival, and their body weight was measured every 3 days starting from the seventh day. The oral vehicle consisted of 40% ethyl oleate, 12% lecithin, 20% propylene glycol, and 28% Triton X-100. Mice were administered 5 μL of vehicle per gram of body weight along with 50 mg/kg TMZ or a combination of TMZ and compound 1. […] Upon the natural death of the mice, brains were extracted and entrusted to BioTools for sectioning and HE staining.

Another series deals with T98G (MGMT-positive). In words: CCK8 cell proliferation assay, T98G. The class given is cell-based. To be noted: Homo sapiens, CCK8, 72 h. Here is the method:
(§3) Cell viability and drug cytotoxicity were determined by a CCK-8 kit (Cell Counting Kit-8, CK04-13, MD, USA) (CCK8, C0005, Target Molecule Corp., MA, USA) reagent. Cells were seeded 2 × 10^3 per well in the 96-well plate for 24 h, followed by treating at different concentrations of compounds for 72 h. Before the experiment, CCK8 was 10-fold diluted with the culture medium and then incubated with cells for 30 min. Finally, the OD was 450 nm absorbance and calculated for cell viability.

Series [1] is described as follows: Adverse reactions in treated tumor-bearing mice. The class given is in vivo. To be noted: mice of the orthotopic tumor models. The protocol:
(§4) For orthotopic inoculation, CT-2A cells (1 × 10^5) or CT-2A-R (2 × 10^5) were suspended in 4 μL of DMEM and implanted into the brain of B6 mice. PT#3-R cells (5 × 10^5) were suspended in 4 μL of DMEM and implanted into the brain of SCID mice. After cell implantation, mice were monitored daily for survival, and their body weight was measured every 3 days starting from the seventh day. The oral vehicle consisted of 40% ethyl oleate, 12% lecithin, 20% propylene glycol, and 28% Triton X-100. Mice were administered 5 μL of vehicle per gram of body weight along with 50 mg/kg TMZ or a combination of TMZ and compound 1. Intraperitoneal injections were administered with DMSO (solvent control), TMZ (10 μg/kg), TMZ (10 μg/kg), and compound 1 (10 or 20 μg/kg). Upon the natural death of the mice, brains were extracted and entrusted to BioTools for sectioning and HE staining.
Supplementary information VIII. Body weight changes in mice administered with vehicle, TMZ, and Compound 1 in vivo.
S-VIII-1. Body weight changes in mice administered with DMSO, TMZ, and Compound 1 intraperitoneally following orthotopic CT-2A tumor implantation .
S-VIII-2. Body weight changes in mice administered with vehicle, TMZ, and Compound 1 intraperitoneally following orthotopic CT-2AR tumor implantation.
S-VIII-3. […]

A further series relates to U87MG-R. Briefly: CCK8 cell proliferation assay, U87MG-R. The series is classed as cell-based. The conditions noted are these: Homo sapiens, CCK8, 72 h. The protocol: as §3
A general note: Tetrazolium assays rely on reduction of a dye to a coloured formazan, in cell work by metabolically active cells.

Another series relates to PT#3R cells. Briefly: Cell cycle analysis by flow cytometry. The class given is cell-based, human. The conditions noted are these: 72 h. Here is the method: To measure the cell cycle, cells were seeded 5 × 10^4 per well in a 12-well plate for 24 h, followed by treatment of the different concentrations of compounds for 72 h. Next, the cells were fixed with 70% ethanol and stored at −20 °C for at least 24 h. After washing, the cells were stained with 30 μg/mL propidium iodide (PI, Cat# P4170, Sigma-Aldrich) and contented 10 ng/mL RNaseA (Cat# R6148, Sigma-Aldrich) for 30 min, followed by detection using flow cytometry Guava easyCyte Flow Cytometers and then analyzed by the Guava easyCyte System 3.3 (Cytec Industries Incorporated, NJ, USA).
For orientation: A flow cytometer gives signals particle by particle.

Series [2] deals with histones H3 and H4 in U87MGR GBM cells. Briefly: Western blot of histone H3 and H4 acetylation. The class given is cell-based, human. The conditions noted are these: 10 μM, within 1 h. Here is the method: The experimental procedure was performed as described in our previous study.[41] On the day prior to the experiment, […] cells were seeded into each well of a 6-well plate. The following day, the cells were washed twice with PBS and treated with 10 μM compound 1. The acetylation status of histones H3 and H4, DNA repair, and protein stability assay were assessed at 0–24 h post-treatment. The antibody models and dilution ratios used are detailed in Table S1. Protein image collection and quantification were done by the ChemiDoc Touch Imaging System (Cat. No. 12676029, Bio-Rad Laboratories, Inc., CA, USA).
For orientation: A western blot detects proteins with antibodies after separation by electrophoresis.

Another series has as its target T2, HDAC2 (Homo sapiens, UniProt Q92769).
T2 construct: purchased Reaction Biology Corporation, Malvern, PA (contract assay service)
In words: HDAC enzyme inhibition assay, HDAC2. The series is classed as biochemical. To be noted: 10-dose, 3-fold serial dilution starting at 10 μM. The protocol:
as §1

In series [3] the test system is CT-2A-R astrocytoma cells. Briefly: Orthotopic CT-2A-R tumor model, IVIS. To be noted: 50 mg/kg orally. The class given is in vivo, mouse. Here is the method:
as §2
as §4, with “Upon the natural death of the mice, brains were extracted and entrusted to BioTools for sectioning and HE staining.” left out

Structures are written as SMILES.

T2 sequence (Q92769 whole entry): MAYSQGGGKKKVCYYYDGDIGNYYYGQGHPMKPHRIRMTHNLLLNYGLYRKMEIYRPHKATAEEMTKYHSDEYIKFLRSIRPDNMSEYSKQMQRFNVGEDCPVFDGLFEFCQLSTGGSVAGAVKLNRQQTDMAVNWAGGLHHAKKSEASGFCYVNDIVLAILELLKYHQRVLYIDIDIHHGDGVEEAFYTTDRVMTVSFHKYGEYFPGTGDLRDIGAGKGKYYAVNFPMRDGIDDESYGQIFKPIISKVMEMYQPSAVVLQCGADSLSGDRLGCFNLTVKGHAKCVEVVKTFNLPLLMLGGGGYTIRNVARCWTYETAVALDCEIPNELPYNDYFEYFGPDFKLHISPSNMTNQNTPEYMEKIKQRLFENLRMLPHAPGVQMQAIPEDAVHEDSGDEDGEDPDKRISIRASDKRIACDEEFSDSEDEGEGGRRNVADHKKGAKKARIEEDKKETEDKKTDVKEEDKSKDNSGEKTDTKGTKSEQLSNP

By IC50 is commonly meant the concentration that inhibits the measured activity by half. A high value points to weaker potency. Take `O=C(/C=C/c1ccc(CNC[C@H]2CN(c3ccc(N4CCOCC4)c(F)c3)C(=O)O2)cc1)NO` [compound 1, (S,E)-3-(4-((((3-(3-Fluoro-4-morpholinophenyl)-2-oxooxazolidin-5-yl)methyl)ami-no)methyl)phenyl)-N-hydroxyacrylamide]: the IC50 is 447 nM against HDAC8, 30.6 ± 0.56 µM in the series with T98G (MGMT-positive), 16.6 ± 0.45 µM with U87MG-R and 2810 nM on HDAC2. The “growth of orthotopic tumors (IVIS)” value (with CT-2A astrocytoma cells; in series [3]) was “effectively inhibited the growth of orthotopic tumors” each time. Further, the “adverse reactions during the treatment period” value in series [1] is given as “without adverse reactions observed”. Also, in the series on PT#3R cells, the cell cycle distribution result is “G2/M phase arrest and increases in the sub-G1 cell population”. The “acetylation in histones H3 and H4” value in series [2] was “significant induction of acetylation”.
